Consider seven molecules from ChEMBL document CHEMBL3351884, “Semi-synthesis of oxygenated dolabellane diterpenes with highly in vitro anti-HIV-1 activity” (Bioorg Med Chem Lett, 2014).

A word on the CC50: it is the concentration that lowers cell viability or growth by half. For orientation: EC50 means the concentration giving half of the maximal effect.

A short description of data set [1]: Cytotoxicity against human MT2 cells after 4 to 5 days by MTT assay. The class given is cell-based. On the technique in general: Tetrazolium dyes change colour on reduction, which living cells bring about.
Data set [2] in a line: Selectivity index, ratio of CC50 for human MT2 cells to EC50 for X4 tropic HIV1 3B infected in human MT2 cells. The class given is toxicity, cell-based. The note with it: read-out: Ratio CC50/EC50.
The subject of data set [3] is Human immunodeficiency virus 1. The data set is described as follows: Antiviral activity against X4 tropic HIV1 3B infected in human MT2 cells assessed as protection against virus-induced cytopathic effect after 2 to 3 days by MTT assay. The class given is functional, organism-based. Conditions: Human immunodeficiency virus 1, 3B. A general note: Protection from cytopathic effect is a common read-out in antiviral testing.

Take `Cc1ccnc2c1NC(=O)c1cccnc1N2C1CC1` [NEVIRAPINE]: half-maximal cytotoxicity in data set [1] (CC50) was put at 320 µM.
As to `CC(C)=C1C(=O)C[C@@]2(C)C/C=C(\C)CC/C=C(\C)CC[C@H]12` [DOLABELLANE], in data set [2], the selectivity ratio stood at 13.5. The EC50 in data set [3] turned out to be 190 µM. In data set [1], this molecule registered a CC50 of 2570 µM.
The like results for `CC(C)=C1C(=O)C[C@@]2(C)C/C=C(\CO)CC/C=C(\C)CC[C@H]12` were, in that order, 1420, 0.69 µM and 980 µM.
For `C[C@H]1/C=C/[C@@]2(C)CC[C@@H](C(C)(C)O)[C@@H]2[C@@H](O)C[C@@](C)(O)/C=C\C1` the same measures were 184, 6.16 µM and 1130 µM.
For `CC(C)=C1C(=O)C[C@@]2(C)C[C@@H]3O[C@@]3(C)CC[C@@H]3O[C@@]3(C)CC[C@H]12` the same measures were 2320, 0.73 µM and 1690 µM.
As for `C=C1CC[C@@H]2C(=C(C)C)C(=O)C[C@@]2(C)C[C@@H](O)[C@](C)(O)CC[C@@H]1O`, in data set [2], the selectivity ratio was 236. The EC50 in data set [3] came to 3.9 µM. In addition, the CC50 in data set [1] came out at 920 µM.
As for `CC(C)=C1CC[C@@]2(C)C/C=C(\C)CC/C=C(\C)CC[C@H]12`, in data set [2], the selectivity ratio stood at 8.7. In data set [3], the EC50 was 210 µM. In data set [1], this molecule yielded a CC50 of 1830 µM.
